According to publication PMC7470110, “Design, synthesis, and in vitro evaluation of aza-peptide aldehydes and ketones as novel and selective protease inhibitors” (Journal of Enzyme Inhibition and Medicinal Chemistry, 2020):
Like-named read-outs stand apart in the source and are kept apart here. Values belong to the compound of their own block, whether it stands above or below them. Peptide text beside a SMILES is read from it. * marks the point of attachment. Cbz = O=C(OCc1ccccc1)*

Experiments:
I. ricinus legumain = I. ricinus legumain (Ixodes ricinus, UniProt Q6PRC7); experiment: Legumain kinetic assay (I. ricinus); assay type: biochemical
Experimental: (§1) Schistosoma mansoni and Ixodes ricinus legumain zymogens were expressed in the yeast, Pichia pastoris, as described[36]^,[42]. Legumain kinetic assay details: zymogens were activated for 3 h (Ir) or overnight (Sm) at room temperature in 0.1 M Na-Ac pH 4.0; 5 mM DTT. Activities were measured in 0.1 M Na-Ac pH 5.5; 2.5 mM DTT, 0.1% PEG 6000 buffer. The substrate used was Cbz-AAN-AMC with 50 µM final concentration in the assay. Inhibitors were prepared in DMSO (1% DMSO in activity assay). Measurements were taken with an incubation period of 10 min at room temperature, and the enzyme activity was measured in triplicate. Asparaginyl Endopeptidase (AE) activity assay was performed as previously described.

S. mansoni legumain = S. mansoni legumain (Schistosoma mansoni, UniProt P09841); experiment: Legumain kinetic assay (S. mansoni); assay type: biochemical; details: for IC50: substrate Cbz-AAN-AMC 50 µM, pH 5.5
Chain of S. mansoni legumain (P09841 32-291): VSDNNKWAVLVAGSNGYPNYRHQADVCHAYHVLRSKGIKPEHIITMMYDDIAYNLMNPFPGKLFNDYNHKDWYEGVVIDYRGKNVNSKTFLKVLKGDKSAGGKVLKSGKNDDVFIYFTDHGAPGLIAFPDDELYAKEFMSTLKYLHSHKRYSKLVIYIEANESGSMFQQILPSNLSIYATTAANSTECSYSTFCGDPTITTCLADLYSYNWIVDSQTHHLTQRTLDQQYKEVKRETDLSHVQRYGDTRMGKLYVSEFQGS
Experimental: as §1

proteasome = details: substrate Suc-LLVY-AMC, cited from earlier work; for Ki: read-out: previously reported Ki
[1] = molecular target: T1, β5 active site of the human 20S proteasome (Homo sapiens, UniProt P28074); experiment: Proteasome kinetic assay (β5 chymotrypsin-like active site); assay type: biochemical; details: substrate Suc-LLVY-AMC 100 µM
T1 construct: purchased Boston Biochem
Experimental: Human 20S proteasome, 700 KDa, was purchased from Boston Biochem (50 µg, 2 µM (1.4 mg/mL)) in 50 mM HEPES buffer (pH 7.6, 100 mM NaCl, 1 mM DTT). Assay buffer was prepared as follows: 20 mM HEPES buffer pH 7.8, 0.5 mM EDTA, 0.037% SDS. Proteasome specific substrate Suc-LLVY-AMC was purchased from Boston Biochem and used as a fluorogenic substrate; λex = 380 nm, λem = 442 nm. 18 µL of 2 µM proteasome solution was diluted with 425 µL H2O to make a 0.06 µM stock enzyme solution for kinetic assays. In a 96-well plate suitable for fluorometric assays was added 86 µL assay buffer, 2 µL inhibitor, 2 µL enzyme substrate, and 10 µL enzyme stock solution ([…] enzyme concentration in well). Fluorescence at 442 nM was monitored for 10 min. […] IC50 values were obtained from non-linear fitting of the data to a competitive inhibition model using GraphPad Prism 7.0 software. The proteasome β5 chymotrypsin-like active site activity assay was performed as previously described.

[2] = cited from earlier work
[3] = molecular target: calpains and various lysosomal cathepsins; design: method as in PMID 8087844; details: cited from earlier work
human caspase-6 = molecular target: T2, human caspase-6 (Homo sapiens, UniProt P55212); experiment: Caspase-6 kinetic assay; assay type: biochemical; details: for IC50: substrate Ac-VEID-AFC 0.1 mM, 37 °C
T2 construct: gift, Prof; Guy Salvesen's laboratory
T2 sequence (P55212 24-179 limits assumed): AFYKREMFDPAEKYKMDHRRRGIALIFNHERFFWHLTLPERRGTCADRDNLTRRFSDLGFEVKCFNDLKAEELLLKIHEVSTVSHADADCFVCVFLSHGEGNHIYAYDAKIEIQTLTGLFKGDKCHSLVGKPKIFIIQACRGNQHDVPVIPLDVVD
T2 sequence (P55212 194-293 limits assumed): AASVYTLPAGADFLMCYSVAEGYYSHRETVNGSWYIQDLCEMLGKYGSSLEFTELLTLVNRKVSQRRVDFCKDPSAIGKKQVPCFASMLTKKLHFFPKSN
Experimental: (§2) Caspase-3 and caspase-6 were generous gifts from Prof. Guy Salvesen’s laboratory and then used at Ohio State University. Caspase activities were measured in 100 mM HEPES, 10% sucrose, 0.1% CHAPS, 10 mM DTT, pH 7.5 at 37 °C. To 5,000 µL of this buffer, 100 µL of freshly prepared 1 M DTT and 4,900 µL DI H2O were added resulting in the caspase assay buffer. Studies were performed at 37 °C.
Caspase-6 specific substrate Ac-VEID-AFC was purchased from ChemCruz and used as a fluorogenic substrate; λex = 400 nm, λem = 505 nm. To 45 µL of assay buffer, 5 µL of the 19.7 µM enzyme was added. This resulting enzyme solution was further diluted 1:5 with assay buffer resulting in a 0.32 µM solution. In a 96-well plate suitable for fluorometric assays was added 80 µL assay buffer, 5 µL inhibitor, 5 µL enzyme substrate (0.1 mM), and 10 µL enzyme stock solution (32 nM enzyme concentration in well). The enzyme activity was measured in triplicate at varying concentrations of inhibitor (0, 25, 50, 100 µM in DMSO) and substrate (0.1 mM in DMSO) by converting the slope of the plot of fluorescence intensity at 442 nm vs time for the time points between 4 and 8 min using Lambert-Beer’s law. IC50 values were obtained from non-linear fitting of the data to a competitive inhibition model using GraphPad Prism 7.0 software.

human caspase-3 = molecular target: T3, human caspase-3 (Homo sapiens, UniProt P42574); experiment: Caspase-3 kinetic assay; assay type: biochemical; details: substrate Ac-DEVD-AMC 0.1 mM, 37 °C
T3 construct: gift, Prof; Guy Salvesen's laboratory
T3 sequence (P42574 29-175 limits assumed): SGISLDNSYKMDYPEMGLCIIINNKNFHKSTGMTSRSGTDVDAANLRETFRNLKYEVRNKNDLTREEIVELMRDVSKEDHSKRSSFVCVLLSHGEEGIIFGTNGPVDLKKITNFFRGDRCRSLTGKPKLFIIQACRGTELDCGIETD
T3 sequence (P42574 176-277 limits assumed): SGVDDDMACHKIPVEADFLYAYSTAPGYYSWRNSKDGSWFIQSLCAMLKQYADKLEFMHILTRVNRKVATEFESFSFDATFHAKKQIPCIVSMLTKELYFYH
Experimental: as §2
Caspase-3 specific substrate Ac-DEVD-AMC was purchased from Cayman Chemical Company and used as fluorogenic substrate; λex = 353 nm, λem = 442 nm. 2 µL of 33 µM caspase-3 solution was diluted with 4998 µL caspase assay buffer to make a 13.2 nM enzyme stock solution. In a 96-well plate suitable for fluorometric assays, 80 µL assay buffer, 5 µL inhibitor, 5 µL enzyme substrate (0.1 mM), and 10 µL enzyme stock solution were added. Fluorescence at 442 nM was monitored for 10 min. The enzyme activity was measured in triplicate at varying concentrations of inhibitor (0, 25, 50, 100 µM in DMSO) and substrate (0.1 mM in DMSO) by converting the slope of the plot of fluorescence intensity at 442 nm vs time for the time points between 4 and 8 min using Beer-Lambert’s law. IC50 values were obtained from non-linear fitting of the data to a competitive inhibition model using GraphPad Prism 7.0 software.

[4] = at the highest concentration tested (100 µM)

Compound: C[C@H](NC(=O)OCc1ccccc1)C(=O)N[C@@H](C)C(=O)NN(CC(N)=O)C(=O)C(=O)Cc1ccccc1 [Compound 11, Benzyl ((S)-1-(((S)-1–(2–(2-amino-2-oxoethyl)-2-(2-oxo-3-phenylpropanoyl)hydrazinyl)-1-oxopropan-2-yl)amino)-1-oxopropan-2-yl)carbamate]
IC50 (I. ricinus legumain): 17.8 ± 11.2 µM | IC50 (S. mansoni legumain): 22.2 ± 4.21 µM

Compound: CCC[C@@H](C=O)NC(=O)[C@H](CC(C)C)NC(=O)[C@H](CC(C)C)NC(=O)OCc1ccccc1 [MG115, Cbz-Leu-Leu-Nle-CHO]
Ki (proteasome): 0.021 µM

IC50 [1]: 9.02 ± 1.82 µM
Compound: CC(C)C[C@H](NC(=O)OCc1ccccc1)C(=O)N[C@@H](CC(C)C)C(=O)NN(CC(C)C)C(=O)C=O [Compound 3, Benzyl ((S)-1-(((S)-1–(2-isobutyl-2–(2-oxoacetyl)hydrazinyl)-4-methyl-1-oxopentan-2-yl)amino)-4-methyl-1-oxopentan-2-yl)carbamate]

Compound: CC(C)C[C@H](NC(=O)[C@H](CCc1ccccc1)NC(=O)CN1CCOCC1)C(=O)N[C@@H](Cc1ccccc1)C(=O)N[C@@H](CC(C)C)C(=O)[C@@]1(C)CO1 [Carfilzomib, carfilzomib]
adverse cardiovascular effects, share of patients ([2]; treated patients): up to 30%

Compound: CC(C)C[C@H](NC(=O)[C@H](Cc1ccccc1)NC(=O)c1cnccn1)B(O)O [bortezomib]
peripheral neuropathy, share of patients ([2]; newly diagnosed multiple myeloma patients): up to 64%

IC50 [1]: 10.1 ± 4.49 µM
Compound: CC(C)C[C@H](NC(=O)OCc1ccccc1)C(=O)N[C@@H](CC(C)C)C(=O)NN(CC(C)C)C(=O)C(=O)Cc1ccccc1 [Compound 5, Benzyl ((S)-1-(((S)-1–(2-isobutyl-2–(2-oxo-3-phenylpropanoyl)hydrazinyl)-4-methyl-1-oxopentan-2-yl)amino)-4-methyl-1-oxopentan-2-yl)carbamate]

Compound: CC(C)C[C@@H](C=O)NC(=O)[C@H](CC(C)C)NC(=O)[C@H](CC(C)C)NC(=O)OCc1ccccc1 [MG132, Cbz-Leu-Leu-Leu-CHO] (Cbz-Leu-Leu-Leu-aldehyde)
Ki [3]: 0.005 to 0.012 µM | previously reported Ki (proteasome): few nanomolar | Ki (proteasome): 0.002 to 0.004 µM

IC50 (human caspase-6): 51.9 ± 10.6 µM | IC50 (human caspase-3): 7.74 ± 1.88 µM
Compound: CC(=O)C(=O)N(CC(=O)O)NC(=O)[C@@H](NC(=O)[C@H](CCC(=O)O)NC(=O)[C@H](CC(=O)O)NC(=O)OCc1ccccc1)C(C)C [Compound 6, (5S,8S,11S)-8–(2-Carboxyethyl)-5-(carboxymethyl)-11-isopropyl-3,6,9,12-tetraoxo-14–(2-oxopropanoyl)-1-phenyl-2-oxa-4,7,10,13,14-pentaazahexadecan-16-oic acid]

IC50 [1]: 14.6 ± 2.39 µM
Compound: CC(=O)C(=O)N(CC(C)C)NC(=O)[C@H](CC(C)C)NC(=O)[C@H](CC(C)C)NC(=O)OCc1ccccc1 [Compound 4, Benzyl ((S)-1-(((S)-1–(2-isobutyl-2–(2-oxopropanoyl)hydrazinyl)-4-methyl-1-oxopentan-2-yl)amino)-4-methyl-1-oxopentan-2-yl)carbamate]

Compound: CC(=O)C(=O)N(CC(N)=O)NC(=O)[C@H](C)NC(=O)[C@H](C)NC(=O)OCc1ccccc1 [Compound 10, Benzyl ((S)-1-(((S)-1–(2–(2-amino-2-oxoethyl)-2-(2-oxopropanoyl)hydrazinyl)-1-oxopropan-2-yl)amino)-1-oxopropan-2-yl)carbamate]
inhibition of I. ricinus legumain (I. ricinus legumain; [4]): did not show inhibition | IC50 (I. ricinus legumain; substrate Cbz-AAN-AMC 50 µM, pH 5.5, read-out: IC50 I. ricinus): > 100 µM | inhibition of S. mansoni legumain (S. mansoni legumain; [4]): did not show inhibition | IC50 (S. mansoni legumain): > 100 µM

IC50 (human caspase-6): 64.2 ± 45.4 µM | IC50 (human caspase-3): 13.4 ± 4.61 µM
Compound: CC(C)[C@H](NC(=O)[C@H](CCC(=O)O)NC(=O)[C@H](CC(=O)O)NC(=O)OCc1ccccc1)C(=O)NN(CC(=O)O)C(=O)C(=O)Cc1ccccc1 [Compound 7, (5S,8S,11S)-8–(2-Carboxyethyl)-5-(carboxymethyl)-11-isopropyl-3,6,9,12-tetraoxo-14–(2-oxo-3-phenylpropanoyl)-1-phenyl-2-oxa-4,7,10,13,14-pentaazahexadecan-16-oic acid]

inhibits caspase-6 more effectively than caspase-3 (human caspase-6; ratio of IC50 caspase-3 / caspase-6): 13 times | IC50 (human caspase-6): 9.08 ± 3.02 µM | IC50 (human caspase-3): 122 ± 83.3 µM
Compound: CC[C@@H](C)[C@H](NC(=O)OCc1ccccc1)C(=O)N[C@@H](CCC(=O)O)C(=O)N[C@H](C(=O)NN(CC(=O)O)C(=O)C(C)=O)[C@H](C)O [Compound 8, (5S,8S,11S)-5-((R)-s-butyl)-8–(2-carboxyethyl)-11-((S)-1-hydroxyethyl)-3,6,9,12-tetraoxo-14–(2-oxopropanoyl)-1-phenyl-2-oxa-4,7,10,13,14-pentaazahexadecan-16-oic acid]
